Results published in US20260269287A1, “ALL-NONAQUEOUS MEMBRANE-FREE FLOW BATTERIES” (University of Cincinnati, priority 2023, published 2026).
Entries after “also recorded” stand apart in the source; their conditions may differ.

Experiments:
Format in all cases: physicochemical
[1] = Crossover in the biphasic system under static conditions (UV-visible spectroscopy and CV); settings: 15 days, 0.5 M redox material, FEC/BMP-TFSI biphasic system
Protocol: (§1) To explore catholyte materials that meet these solubility requirements, eleven organic compounds were selected, and their solubilities in both phases of the NBS were tested. These materials included derivatives of phenothiazine, cyclopropenium, 2,2,6,6-tetramethylpiperidinyloxy (TEMPO), anthraquinone (AQ), and ferrocene (FIG. 9).
as §1, with “cyclopropenium” for “cyclopropenium,”, “33). […] The solubilities of Tri-TEMPO, C3-PTZ, and CP in 1.5 M FEC/LiClO4 were ~1.2 M, ~1 M, and 1.8 M, respectively.” for “9).”
as §1, with “(FIGS. 33 and 102). […] The solubilities of Tri-TEMPO, C3-PTZ, and CP in […] (1.5 M) were ~1.2 M, ~1 M, and 1.8 M, respectively.” for “(FIG. 9).”
Physiochemical Characterization. The UV-visible absorption spectra were recorded using a UV-visible spectrophotometer (Cary 8454 UV-Vis, Agilent Technologies). To perform UV-vis measurements, samples with concentrations below 5 mM were prepared. To achieve this, highly concentrated samples were diluted in an appropriate electrolyte solvent before conducting the UV-vis measurements. For the UV-vis calibration curve, stock solutions of Tri-TEMPO at concentrations of 0.3 M and 0.5 M were prepared in FEC/LiClO4 (1.5 M). These solutions were then further diluted to prepare solutions with concentrations of 1, 2, 3, 4, and 5 mM. In addition, a blank sample containing no redox materials was prepared to measure the UV-vis spectrum. The absorption intensity of the UV-vis spectra at different concentrations was used to construct the UV-vis calibration curve. […]

[2] = Cyclic voltammetry of redox-active cathode materials in 0.1 M LiClO4/FEC; settings: for reversible redox couple potential: 5 mM in 0.1 M LiClO4/FEC; for electrochemical stability on repeated CV cycling: in 0.1 M LiClO4/FEC, 1st vs 2000th cycle at 200 mV/s; for ratio of cathodic peak current (ipc) and anodic peak current (ipa): scan rates 50-200 mV/s
Protocol: (§2) Electrochemical characterization. CV measurements were performed to evaluate the electrochemical properties of the redox-active materials (Tri-TEMPO, C3-PTZ, and CP) as well as the crossover of the redox-active materials before and after long-term battery cycling. For the CV measurements, 5 mM Tri-TEMPO, 5 mM C3-PTZ, and 5 mM CP solutions were prepared in 0.1 M LiClO4/FEC electrolyte. A 3-mm glassy carbon disk was used as the working electrode and was polished with 5-nm Al2O3 before the measurements. A piece of Pt wire (0.5 mm) was used as the counter electrode while a Ag/Ag^+ electrode was used as the reference electrode.
as §2, with “characterizations.” for “characterization.”, “mM of” for “mM”, “Tri-TEMPO,” for “Tri-TEMPO, 5 mM”, “and” for “and 5 mM”, “FEC/LiClO4” for “LiClO4/FEC”, “5 nm” for “5-nm”
Electrochemical Characterizations. For the CV measurements, 5 mM of Tri-TEMPO, C3-PTZ, and CP solutions were prepared in FEC/LiClO4 (0.1 M) electrolyte. A glassy carbon disk (CHI Instrument, 3 mm) was used as the working electrode and was polished with Al2O3(Pine Research Instrumentation, Inc., […]) before the measurements, where water was used as the solvent to polish the electrode. A piece of Pt wire (Pine Research Instrumentation, Inc., thickness 0.5 mm, purity 99.99%) was used as the counter electrode while an Ag/Ag+ (Fisher Scientific) electrode was used as the reference electrode. The CV measurements were performed using a Bio-Logic potentiostat. Electrochemical impedance spectroscopy (EIS) was performed using a potentiostatic signal spanning from 200 KHz to 100 mHz, with an amplitude of 10 mV. The measurements were conducted under open-circuit voltage (OCV) conditions for a total of 54 data points. The charge/discharge performances were evaluated using Land and Bio-Logic potentiostats.

[3] = Screening of cathode materials: solubilities in both phases of the FEC/BMP-TFSI nonaqueous biphasic system; settings: for solubility in FEC (catholyte): FEC / cathode electrolyte FEC/LiClO4; for affinity towards the anolyte: anode electrolyte BMP-TFSI/LiTFSI
Protocol: as §1
as §1, with “cyclopropenium” for “cyclopropenium,”, “33). […] The solubilities of Tri-TEMPO, C3-PTZ, and CP in 1.5 M FEC/LiClO4 were ~1.2 M, ~1 M, and 1.8 M, respectively.” for “9).”
as §1, with “(FIGS. 33 and 102). […] The solubilities of Tri-TEMPO, C3-PTZ, and CP in […] (1.5 M) were ~1.2 M, ~1 M, and 1.8 M, respectively.” for “(FIG. 9).”

[4] = Solubility test in 1.5 M LiClO4/FEC; settings: average of repeated tests
Protocol: (§3) Solubility test. A solution of 1.5 M LiClO4/FEC was used for the solubility measurements. The solution was gradually added to a vial containing known amounts of the organic compounds used as the catholytes (Tri-TEMPO, C3-PTZ, and CP). Once a clear solution was obtained, the volume of the electrolyte was determined using an analytical pipette. The solubilities of the organic compounds were calculated from the ratio of the molar amount to the electrolyte volume. These steps were repeated twice, and the average values are presented.
as §3, with “processes” for “steps”
Solubility Test. A solution of FEC/LiClO4 (1.5 M) was used for the solubility measurements under an inert argon atmosphere at a temperature of 27° C. The solution was gradually added to a vial containing known amounts of the organic compounds used as the catholytes (Tri-TEMPO, C3-PTZ, and CP). Once a clear solution was obtained, the volume (50 μL) of the electrolyte was determined using an analytical pipette (P20). The solubilities of the organic compounds were calculated from the ratio of the molar amount to the electrolyte volume. These processes were repeated twice, and the average values are presented.

[5] = 1H NMR stability of C3-PTZ and CP at room temperature and 60° C.; settings: over 10 days at 25° C. and 60° C., CD3CN
Protocol: The ^1H NMR spectra were recorded on a Bruker AV400 spectrometer (400 MHz). The chemical shifts were reported in ppm. To determine if CP or C3PTZ had crossed through the biphasic layer, we extracted […] samples from anolyte before and after subjecting the system to extended charge/discharge cycles (~100 cycles). These […] samples were subjected to 1H NMR analysis by combining them with […] of CD3CN, resulting in a total NMR solvent volume of […]. In addition, we followed specific sample preparation procedures to assess the stability of CP and C3-PTZ using ^1H NMR. Approximately 5 mg of either solid CP or C3-PTZ was mixed with […] of CD3CN to create NMR samples. Two NMR samples were prepared for each compound in NMR tubes equipped with J. Young air-inlet valves. Firstly, we recorded ^1H NMR spectra for these NMR samples, after which we stored one NMR tube of each sample at room temperature while the other was placed at 60° C. Subsequently, we collected a series of ^1H NMR spectra at 24-h intervals for 10 days using these samples.

[6] = 1H and 19F NMR determination of LiTFSI concentration in the TEGDME and NFTTS layers; settings: TEGDME/NFTTS biphasic system after salt-out
Protocol: Physicochemical characterizations. The UV-visible absorption spectra were collected on a UV-visible spectrophotometer (Agilent Technologies, Cary 8454 UV-Vis). To perform UV-visible measurements, dilute samples with concentrations below 5 mM were prepared. To achieve this, highly concentrated samples were diluted in an appropriate electrolyte solvent before conducting the UV-visible measurements. A blank sample containing no redox materials was prepared to measure the UV-visible spectrum. The ^1H and ^19F NMR spectra were recorded on a Bruker AV400 spectrometer (400 MHz). The chemical shifts were reported in ppm. To measure the concentration of LiTFSI in TEGDME and NFTTS layers of the biphasic system, a sample of 10 μL volume was collected from each layer and mixed with 400 μL of CDCl3 for preparing the NMR samples. ^1H NMR spectra were first recorded using these samples, and 50 μL of TBAPF6, as an internal standard, was then added to those samples before performing ^19F NMR.
For Design-I, because the gravimetric densities of the solvents followed the sequence TEGDME<NFTTS<FEC, TEGDME was used as the anolyte for the top layer, NFTTS as the ion-exchange layer in the middle, and FEC as the catholyte in the bottom layer. […] This property poses a challenge in constructing a stable triphasic system with the desired immiscibility between the layers. […]

crossover from catholyte to anolyte [1]	reversible redox couple potential [2]	electrochemical stability on repeated CV cycling [2]	ratio of cathodic peak current (ipc) and anodic peak current (ipa) [2]	solubility in FEC (catholyte) [3]	affinity towards the anolyte [3]	solubility [4]	Structure (SMILES)	thermostability by 1H NMR [5]	concentration of LiTFSI in the NFTTS phase [6]	concentration of LiTFSI in the TEGDME phase [6]
Negligible crossover	0.93 V vs. Ag/Ag^+	high cycling stability	~1	high solubilities	extremely poor affinity	1.8 M	CCCCN(CC)c1c(N(CC)CCCC)[c+]1N(CC)CCCC.F[P-](F)(F)(F)(F)F [CP, tris(dialkylamino)cyclo-propenium]	superior thermostability; also recorded: improved thermo-stability	–	–
Negligible crossover	0.37 V vs. Ag/Ag^+	high cycling stability	~1	high solubilities	extremely poor affinity	~ 1.2 M	CC1(C)CC(Nc2nc(NC3CC(C)(C)N(OC4CCCCC4)C(C)(C)C3)nc(NC3CC(C)(C)N(OC4CCCCC4)C(C)(C)C3)n2)CC(C)(C)N1OC1CCCCC1 [Tri-TEMPO, 2,4,6-tri-(1-cyclohex-yloxy-4-imino-2,2,6,6-tetramethylpiperidine)-1,3,5-triazine]	–	–	–
Negligible crossover	0.33 V vs. Ag/Ag^+	high cycling stability	~1	high solubilities	extremely poor affinity	~ 1 M	CCCN1c2ccccc2Sc2ccccc21 [C3-PTZ, N-propyl phenothiazine]	superior thermostability; also recorded: improved thermo-stability	–	–
–	–	–	–	–	–	–	O=S(=O)([N-]S(=O)(=O)C(F)(F)F)C(F)(F)F.[Li+] [LiTFSI, lithium bis(trifluoromethanesulfonyl)imide]	–	0.14 M	1 M
